Experimental data as given in US12522583B2, “Benzimidazole derivatives and aza-benzimidazole derivatives as Janus kinase 2 inhibitors and uses thereof” (Dana-Farber Cancer Institute, Inc., priority 2018, dated 2026).

Experiments:
Test in all cases: KINOMEscan
Type in all cases: binding
Settings in all cases: read-out: percent control
PAK2 = PAK2 (Homo sapiens (Human), UniProt Q13177)
Description: (§1) Example 2. In Vitro Kinase Selectivity Profiling of the Compounds of the Present Disclosure

ULK3 = ULK3 (Homo sapiens (Human), UniProt Q6PHR2)
Description: as §1

TNK1 = TNK1 (Homo sapiens (Human), UniProt Q13470)
Description: as §1

[1] = biological target: ABL1(H396P)-nonphosphorylated (Homo sapiens (Human), UniProt P00519, H396P)
Description: as §1

CDK7 = CDK7 (Homo sapiens (Human), UniProt P50613)
Description: as §1

MAST1 = MAST1 (Homo sapiens (Human), UniProt Q9Y2H9)
Description: as §1

GAK = GAK (Homo sapiens (Human), UniProt O14976)
GAK, sequence (O14976 whole entry): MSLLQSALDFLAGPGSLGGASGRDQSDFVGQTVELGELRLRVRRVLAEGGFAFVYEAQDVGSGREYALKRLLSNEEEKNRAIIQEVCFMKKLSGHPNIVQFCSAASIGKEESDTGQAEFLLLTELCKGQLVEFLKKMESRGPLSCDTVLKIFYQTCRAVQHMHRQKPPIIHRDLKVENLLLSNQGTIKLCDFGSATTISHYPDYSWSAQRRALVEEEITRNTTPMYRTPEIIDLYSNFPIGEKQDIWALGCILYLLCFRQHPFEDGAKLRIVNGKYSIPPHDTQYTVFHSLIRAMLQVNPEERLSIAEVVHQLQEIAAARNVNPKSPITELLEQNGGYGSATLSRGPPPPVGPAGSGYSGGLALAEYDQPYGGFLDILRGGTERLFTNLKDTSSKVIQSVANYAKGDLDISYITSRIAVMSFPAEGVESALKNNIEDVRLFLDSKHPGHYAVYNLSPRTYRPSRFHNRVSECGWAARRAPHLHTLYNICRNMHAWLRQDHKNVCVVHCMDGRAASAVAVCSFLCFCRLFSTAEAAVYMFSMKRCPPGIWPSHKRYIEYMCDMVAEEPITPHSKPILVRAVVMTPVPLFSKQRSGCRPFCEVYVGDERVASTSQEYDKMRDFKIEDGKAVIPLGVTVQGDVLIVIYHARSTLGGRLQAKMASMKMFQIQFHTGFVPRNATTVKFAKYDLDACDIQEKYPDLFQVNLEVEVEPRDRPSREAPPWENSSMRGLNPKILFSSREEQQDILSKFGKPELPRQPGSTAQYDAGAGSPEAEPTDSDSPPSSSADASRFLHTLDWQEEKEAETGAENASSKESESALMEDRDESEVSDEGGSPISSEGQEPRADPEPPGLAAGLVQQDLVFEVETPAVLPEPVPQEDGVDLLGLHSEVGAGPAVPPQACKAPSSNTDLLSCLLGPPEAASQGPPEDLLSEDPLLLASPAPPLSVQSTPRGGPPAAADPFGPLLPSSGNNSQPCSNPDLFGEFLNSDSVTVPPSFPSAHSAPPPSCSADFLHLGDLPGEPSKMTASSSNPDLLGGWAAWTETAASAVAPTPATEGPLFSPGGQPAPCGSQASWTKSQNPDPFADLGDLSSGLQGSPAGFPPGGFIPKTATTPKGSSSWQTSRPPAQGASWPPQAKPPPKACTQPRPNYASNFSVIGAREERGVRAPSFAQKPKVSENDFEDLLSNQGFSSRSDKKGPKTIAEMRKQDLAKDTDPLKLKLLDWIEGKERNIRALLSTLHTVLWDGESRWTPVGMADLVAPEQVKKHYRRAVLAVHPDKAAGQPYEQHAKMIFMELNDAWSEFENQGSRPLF
Description: as §1

KIT(V559D, T670I) = KIT(V559D, T670I) (Homo sapiens (Human), UniProt P10721, T670I/V559D)
KIT(V559D, T670I), sequence (P10721 26-976 V559D/T670I): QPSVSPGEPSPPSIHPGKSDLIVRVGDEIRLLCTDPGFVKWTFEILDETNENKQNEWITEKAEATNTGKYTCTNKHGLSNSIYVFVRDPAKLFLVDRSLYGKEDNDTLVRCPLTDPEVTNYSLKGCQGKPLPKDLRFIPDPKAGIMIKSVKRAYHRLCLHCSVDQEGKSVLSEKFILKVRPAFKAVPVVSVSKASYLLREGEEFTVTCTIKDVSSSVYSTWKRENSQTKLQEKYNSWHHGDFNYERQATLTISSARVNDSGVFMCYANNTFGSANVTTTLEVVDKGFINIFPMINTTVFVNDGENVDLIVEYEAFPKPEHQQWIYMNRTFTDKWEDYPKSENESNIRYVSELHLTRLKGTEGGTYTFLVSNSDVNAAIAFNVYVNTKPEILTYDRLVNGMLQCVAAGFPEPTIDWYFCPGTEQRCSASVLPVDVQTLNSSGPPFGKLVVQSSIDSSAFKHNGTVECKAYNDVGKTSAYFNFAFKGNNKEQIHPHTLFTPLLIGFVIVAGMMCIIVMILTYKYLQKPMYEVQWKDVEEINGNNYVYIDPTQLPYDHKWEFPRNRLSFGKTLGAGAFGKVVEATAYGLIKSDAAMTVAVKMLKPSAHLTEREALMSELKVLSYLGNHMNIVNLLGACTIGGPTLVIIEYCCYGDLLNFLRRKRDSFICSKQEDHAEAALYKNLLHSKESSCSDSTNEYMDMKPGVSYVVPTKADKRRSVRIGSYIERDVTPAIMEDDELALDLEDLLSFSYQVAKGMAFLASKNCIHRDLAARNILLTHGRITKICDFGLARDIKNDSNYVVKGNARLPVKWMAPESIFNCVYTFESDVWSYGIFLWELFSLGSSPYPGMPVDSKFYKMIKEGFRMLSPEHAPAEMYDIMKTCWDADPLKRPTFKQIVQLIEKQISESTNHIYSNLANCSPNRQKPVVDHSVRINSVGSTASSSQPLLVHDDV
Description: as §1

TRKB = TRKB (Homo sapiens (Human), UniProt Q16620)
Description: as §1

RAF1 = RAF1 (Homo sapiens (Human), UniProt P04049)
Description: as §1

ERK4 = ERK4 (Homo sapiens (Human), UniProt P31152)
Description: as §1

CDKL2 = CDKL2 (Homo sapiens (Human), UniProt Q92772)
Description: as §1

ZAK = ZAK (Homo sapiens (Human), UniProt Q9NYL2)
Description: as §1

TGFBR2 = TGFBR2 (Homo sapiens (Human), UniProt P37173)
Description: as §1

PIK3CG = PIK3CG (Homo sapiens (Human), UniProt P48736)
Description: as §1

[2] = biological target: RPS6KA5(Kin.Dom.1-terminal) (Homo sapiens (Human), UniProt O75582)
Description: as §1

DAPK3 = DAPK3 (Homo sapiens (Human), UniProt O43293)
Description: as §1

MAPKAPK5 = MAPKAPK5 (Homo sapiens (Human), UniProt Q8IW41)
Description: as §1

MAP4K5 = MAP4K5 (Homo sapiens (Human), UniProt Q9Y4K4)
Description: as §1

BLK = BLK (Homo sapiens (Human), UniProt P51451)
BLK, sequence (P51451 whole entry): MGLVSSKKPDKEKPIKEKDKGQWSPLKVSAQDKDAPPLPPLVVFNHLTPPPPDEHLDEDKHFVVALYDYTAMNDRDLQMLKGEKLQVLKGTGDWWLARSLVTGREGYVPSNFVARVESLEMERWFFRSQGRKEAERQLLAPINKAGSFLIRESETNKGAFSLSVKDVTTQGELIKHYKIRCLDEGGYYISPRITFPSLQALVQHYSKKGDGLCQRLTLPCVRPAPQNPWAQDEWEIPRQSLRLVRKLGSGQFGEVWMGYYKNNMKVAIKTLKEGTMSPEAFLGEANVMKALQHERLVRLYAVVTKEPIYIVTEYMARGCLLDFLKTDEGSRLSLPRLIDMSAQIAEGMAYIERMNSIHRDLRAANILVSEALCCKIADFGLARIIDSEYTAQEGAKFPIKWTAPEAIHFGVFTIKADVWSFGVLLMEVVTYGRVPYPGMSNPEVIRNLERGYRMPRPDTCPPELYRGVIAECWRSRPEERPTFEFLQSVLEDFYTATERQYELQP
Description: as §1

[3] = biological target: RSK3(Kin.Dom.1-N-terminal) (Homo sapiens (Human), UniProt Q15349)
Description: as §1

MAP4K3 = MAP4K3 (Homo sapiens (Human), UniProt Q8IVH8)
Description: as §1

NDR2 = NDR2 (Homo sapiens (Human), UniProt Q9Y2H1)
NDR2, sequence (Q9Y2H1 whole entry): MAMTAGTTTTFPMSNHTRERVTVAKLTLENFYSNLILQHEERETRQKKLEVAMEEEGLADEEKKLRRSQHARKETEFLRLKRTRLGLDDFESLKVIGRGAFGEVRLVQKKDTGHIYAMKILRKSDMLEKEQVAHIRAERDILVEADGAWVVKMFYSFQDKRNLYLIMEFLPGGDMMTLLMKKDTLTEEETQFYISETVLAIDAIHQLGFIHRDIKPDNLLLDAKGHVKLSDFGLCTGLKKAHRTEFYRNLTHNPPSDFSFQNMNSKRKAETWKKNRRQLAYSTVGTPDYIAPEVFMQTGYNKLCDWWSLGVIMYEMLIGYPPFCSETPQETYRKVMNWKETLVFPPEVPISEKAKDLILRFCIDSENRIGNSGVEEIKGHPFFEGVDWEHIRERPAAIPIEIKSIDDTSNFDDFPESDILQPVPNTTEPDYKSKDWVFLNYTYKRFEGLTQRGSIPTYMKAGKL
Description: as §1

CHEK1 = CHEK1 (Homo sapiens (Human), UniProt O14757)
CHEK1, sequence (O14757 whole entry): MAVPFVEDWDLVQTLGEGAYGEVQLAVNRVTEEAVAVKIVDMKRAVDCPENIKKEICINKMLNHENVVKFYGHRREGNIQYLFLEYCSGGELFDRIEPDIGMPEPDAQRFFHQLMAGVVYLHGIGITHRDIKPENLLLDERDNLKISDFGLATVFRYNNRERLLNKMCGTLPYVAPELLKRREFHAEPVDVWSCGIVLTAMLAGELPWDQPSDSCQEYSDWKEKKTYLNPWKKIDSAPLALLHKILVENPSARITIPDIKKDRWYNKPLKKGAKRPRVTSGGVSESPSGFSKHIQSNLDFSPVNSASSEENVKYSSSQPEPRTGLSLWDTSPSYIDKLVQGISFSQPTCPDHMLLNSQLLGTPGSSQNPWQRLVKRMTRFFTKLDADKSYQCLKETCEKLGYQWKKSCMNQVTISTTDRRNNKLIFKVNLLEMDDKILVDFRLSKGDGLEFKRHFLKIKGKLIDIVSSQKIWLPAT
Description: as §1

PAK4 = PAK4 (Homo sapiens (Human), UniProt O96013)
PAK4, sequence (O96013 whole entry): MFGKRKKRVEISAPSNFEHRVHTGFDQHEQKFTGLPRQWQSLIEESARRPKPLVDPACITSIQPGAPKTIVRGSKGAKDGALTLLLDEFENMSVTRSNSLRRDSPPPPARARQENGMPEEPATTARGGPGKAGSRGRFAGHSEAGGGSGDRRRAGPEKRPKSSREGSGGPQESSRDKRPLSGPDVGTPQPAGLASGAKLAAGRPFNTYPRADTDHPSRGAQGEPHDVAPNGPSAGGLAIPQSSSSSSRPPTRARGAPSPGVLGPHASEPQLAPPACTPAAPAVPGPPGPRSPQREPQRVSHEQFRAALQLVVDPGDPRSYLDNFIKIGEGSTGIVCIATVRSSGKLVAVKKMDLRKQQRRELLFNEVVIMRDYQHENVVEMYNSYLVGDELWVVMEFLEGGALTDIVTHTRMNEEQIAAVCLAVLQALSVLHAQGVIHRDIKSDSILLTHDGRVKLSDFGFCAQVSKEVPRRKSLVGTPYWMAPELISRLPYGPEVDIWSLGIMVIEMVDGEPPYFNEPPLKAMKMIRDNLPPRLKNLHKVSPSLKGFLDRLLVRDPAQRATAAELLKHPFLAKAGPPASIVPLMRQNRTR
Description: as §1

FES = FES (Homo sapiens (Human), UniProt P07332)
Description: as §1

IKK-beta = IKK-beta (Homo sapiens (Human), UniProt O14920)
Description: as §1

IGF1R = IGF1R (Homo sapiens (Human), UniProt P08069)
Description: as §1

PAK2, sequence (Q13177 whole entry): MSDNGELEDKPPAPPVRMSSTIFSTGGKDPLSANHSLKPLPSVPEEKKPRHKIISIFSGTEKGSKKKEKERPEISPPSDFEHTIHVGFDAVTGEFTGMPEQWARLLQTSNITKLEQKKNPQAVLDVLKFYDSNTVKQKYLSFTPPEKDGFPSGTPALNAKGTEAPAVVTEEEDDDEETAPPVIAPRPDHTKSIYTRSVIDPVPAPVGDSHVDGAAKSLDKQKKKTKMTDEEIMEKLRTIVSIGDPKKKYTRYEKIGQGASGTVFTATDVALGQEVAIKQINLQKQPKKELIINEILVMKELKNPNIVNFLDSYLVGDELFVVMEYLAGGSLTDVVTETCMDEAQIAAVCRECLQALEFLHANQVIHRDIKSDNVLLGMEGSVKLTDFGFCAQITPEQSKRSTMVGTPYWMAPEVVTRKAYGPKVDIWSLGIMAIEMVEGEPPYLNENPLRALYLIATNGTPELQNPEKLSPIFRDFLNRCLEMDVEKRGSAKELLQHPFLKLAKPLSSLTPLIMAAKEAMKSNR

SMILES	remaining binding at 1 µM (PAK2) [%]	remaining binding at 1 µM (ULK3) [%]	remaining binding at 1 µM (TNK1) [%]	remaining binding at 1 µM [1] [%]	remaining binding at 1 µM (CDK7) [%]	remaining binding at 1 µM (MAST1) [%]	remaining binding at 1 µM (GAK) [%]	remaining binding at 1 µM (KIT(V559D, T670I)) [%]	remaining binding at 1 µM (TRKB) [%]	remaining binding at 1 µM (RAF1) [%]	remaining binding at 1 µM (ERK4) [%]	remaining binding at 1 µM (CDKL2) [%]	remaining binding at 1 µM (ZAK) [%]	remaining binding at 1 µM (TGFBR2) [%]	remaining binding at 1 µM (PIK3CG) [%]	remaining binding at 1 µM [2] [%]	remaining binding at 1 µM (DAPK3) [%]	remaining binding at 1 µM (MAPKAPK5) [%]	remaining binding at 1 µM (MAP4K5) [%]	remaining binding at 1 µM (BLK) [%]	other results
CCN1CCN(Cc2ccc(Nc3nc4ccc(Oc5ccnc(NC(C)=O)c5)cc4n3C)cc2C(F)(F)F)CC1 [Compound I-2]	97	92	76	0.05	45	74	100	1.2	36	14	100	1.9	25	90	100	96	76	99	89	49	remaining binding at 1 µM [3]: 70%; remaining binding at 1 µM (MAP4K3): 71%; remaining binding at 1 µM (NDR2): 62%; remaining binding at 1 µM (CHEK1): 100%; remaining binding at 1 µM (PAK4): 94%; remaining binding at 1 µM (FES): 100%; remaining binding at 1 µM (IKK-beta): 98%; remaining binding at 1 µM (IGF1R): 59%
CCN1CCN(Cc2ccc(Nc3nc4ccc(Oc5ccnc(NC(C)=O)c5)c(C)c4n3C)cc2C(F)(F)F)CC1 [Compound I-6, N-(4-(2-(4-((4-ethylpiperazin-1-yl)methyl)-3-(trifluoromethyl)phenylamino)-1,7-dimethyl-1H-benzo[d]imidazol-6-yloxy)pyridin-2-yl)acetamide]	98	79	82	1.1	15	100	98	1.5	1.4	16	90	0.5	5.6	81	95	74	99	83	88	17	remaining binding at 1 µM [3]: 100%; remaining binding at 1 µM (MAP4K3): 74%; remaining binding at 1 µM (NDR2): 97%; remaining binding at 1 µM (CHEK1): 100%; remaining binding at 1 µM (PAK4): 97%; remaining binding at 1 µM (FES): 82%; remaining binding at 1 µM (IKK-beta): 72%; remaining binding at 1 µM (IGF1R): 34%
